Assay results as given in patent publication US8969589B2, “Compounds acting at multiple prostaglandin receptors giving a general anti-inflammatory response” (Allergan, Inc., priority 2011, dated 2015).

What was measured:
Format in all cases: cell-based
[1] = molecular target: T1, human prostanoid FP receptor (Homo sapiens, UniProt P43088); test: FLIPR Ca2+ signaling PG antagonist assay, FP stable cell line; conditions: antagonist Kb vs standard agonist 17-phenyl-PGF2α; HEK-293 EBNA cells
T1 construct: expressed in transfected cells
T1 sequence (P43088 whole entry): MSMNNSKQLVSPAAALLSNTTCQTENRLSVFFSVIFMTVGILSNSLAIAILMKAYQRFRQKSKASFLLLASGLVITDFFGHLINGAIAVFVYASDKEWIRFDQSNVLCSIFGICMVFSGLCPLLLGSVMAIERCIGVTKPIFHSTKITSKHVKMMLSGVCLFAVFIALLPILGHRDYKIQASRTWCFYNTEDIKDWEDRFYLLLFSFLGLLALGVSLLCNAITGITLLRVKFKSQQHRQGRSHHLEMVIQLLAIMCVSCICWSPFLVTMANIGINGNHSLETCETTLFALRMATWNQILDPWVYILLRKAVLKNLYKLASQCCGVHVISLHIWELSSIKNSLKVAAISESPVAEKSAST
Experimental: (§1) The above compounds were tested for PG antagonist activity as follows using human recombinant prostanoid receptor (DP1, EP1-4, FP, IP and TP) stable cell lines:
(§2) In order to measure the response of Gs and Gi coupled prostanoid receptors as a Ca^2+ signal, chimeric G protein cDNAs were used. Stable cell lines over-expressing human prostanoid DP1, EP1-4, FP, IP, and TP receptors were established as follows:
(§3) Briefly, human prostanoid DP1, EP2, and EP4 receptor cDNAs were co-transfected with chimeric Gqs cDNA containing a haemagglutanin (HA) epitope; human prostanoid EP3 receptors were co-transfected with chimeric Gqi-HA; human EP1, FP, IP, and TP receptor cDNAs were expressed with no exogenous G-proteins. Gqs and Gqi chimeric cDNAs (Molecular Devices, Sunnyvale, Calif., U.S.A.), as well as cDNAs of prostanoid receptors, were cloned into a pCEP4 vector with a hygromycin B selection marker. Transfection into HEK-293 EBNA (Epstein-Barr virus nuclear antigen) cells was achieved by the FuGENE 6 transfection Reagent (Roche Applied Science, Indianapolis, Ind., USA). Stable transfectants were selected according to hygromycin resistance. Because Gqs and Gqi contained an HA epitope, G-protein expression was detected by Western blotting analysis using anti-mouse HA monoclonal antibody and horseradish peroxidase (HRP)-conjugated secondary antibody, while functional expression of prostanoid receptors was detected by FLIPR screening (Matias et al., 2004). These stable cell lines were validated using previously published antagonists at 10 μM against serial dilutions of standard agonists by FLIPR functional assays for Ca^2− Signaling (as described below).
(§4) Ca^2+ signaling studies were performed using a FLIPR TETRA system (Molecular Devices, Sunnyvale, Calif., USA) in the 384-format. This is a high-throughput instrument for cell-based assays to monitor Ca^2+ signaling associated with GPCRs and ion channels. Cells were seeded at a density of 5×10^4 cells/well in BioCoat poly-D-lysine coated, black wall, clear bottom 384-well plates (BD Biosciences, Franklin lakes, N.J., USA) and allowed to attach overnight in an incubator at 37° C. The cells were then washed twice with HBSS-HEPES buffer (Hanks' balanced salt solution without bicarbonate and phenol red, 20 mM HEPES, pH 7.4) using an ELx405 Select CW Microplate Washer (BioTek, Winooski, Vt., USA). […] Cells were excited with LED (light emitting diode) excitation at 470-495 nm and emission was measured through an emission filter at 515-575 nm. Assay plates were read for 3.5 minutes using the FLIPR^TETRA. The peak increase in fluorescence intensity was recorded for each well. […]

[2] = molecular target: T2, human prostanoid DP1 receptor (Homo sapiens, UniProt Q13258); test: FLIPR Ca2+ signaling PG antagonist assay, DP1 stable cell line; conditions: antagonist Kb vs standard agonist BW 245C; HEK-293 EBNA cells with chimeric Gqs
T2 construct: expressed in transfected cells
T2 sequence (Q13258 1-359): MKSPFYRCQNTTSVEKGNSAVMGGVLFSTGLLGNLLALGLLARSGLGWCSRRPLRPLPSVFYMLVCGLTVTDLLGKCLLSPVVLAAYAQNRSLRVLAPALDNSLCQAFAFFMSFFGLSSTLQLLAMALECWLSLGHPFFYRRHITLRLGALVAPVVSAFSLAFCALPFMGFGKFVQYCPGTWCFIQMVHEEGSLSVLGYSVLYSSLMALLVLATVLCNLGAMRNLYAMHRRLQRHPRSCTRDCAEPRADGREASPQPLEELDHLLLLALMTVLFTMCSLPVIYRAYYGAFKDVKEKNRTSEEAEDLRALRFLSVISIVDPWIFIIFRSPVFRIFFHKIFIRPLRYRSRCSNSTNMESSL
Experimental: as §1, §2, §3, §4

[3] = molecular target: T3, human prostanoid EP1 receptor (Homo sapiens, UniProt P34995); test: FLIPR Ca2+ signaling PG antagonist assay, EP1 stable cell line; conditions: antagonist Kb vs standard agonist PGE2; HEK-293 EBNA cells
T3 construct: expressed in transfected cells
T3 sequence (P34995 1-402): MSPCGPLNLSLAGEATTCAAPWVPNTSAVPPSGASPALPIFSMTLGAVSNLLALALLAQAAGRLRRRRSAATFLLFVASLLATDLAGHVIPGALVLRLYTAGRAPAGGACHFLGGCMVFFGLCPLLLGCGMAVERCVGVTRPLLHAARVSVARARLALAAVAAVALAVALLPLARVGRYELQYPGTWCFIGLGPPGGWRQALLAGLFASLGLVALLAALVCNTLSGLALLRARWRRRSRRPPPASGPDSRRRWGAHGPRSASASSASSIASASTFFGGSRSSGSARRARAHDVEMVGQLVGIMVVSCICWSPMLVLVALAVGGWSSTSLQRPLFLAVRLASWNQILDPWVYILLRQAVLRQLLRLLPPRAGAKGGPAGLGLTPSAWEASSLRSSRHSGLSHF
Experimental: as §1, §2, §3, §4

[4] = molecular target: T4, human prostanoid EP2 receptor (Homo sapiens, UniProt P43116); test: FLIPR Ca2+ signaling PG antagonist assay, EP2 stable cell line; conditions: antagonist Kb vs standard agonist PGE2; HEK-293 EBNA cells with chimeric Gqs
T4 construct: expressed in transfected cells
T4 sequence (P43116 whole entry): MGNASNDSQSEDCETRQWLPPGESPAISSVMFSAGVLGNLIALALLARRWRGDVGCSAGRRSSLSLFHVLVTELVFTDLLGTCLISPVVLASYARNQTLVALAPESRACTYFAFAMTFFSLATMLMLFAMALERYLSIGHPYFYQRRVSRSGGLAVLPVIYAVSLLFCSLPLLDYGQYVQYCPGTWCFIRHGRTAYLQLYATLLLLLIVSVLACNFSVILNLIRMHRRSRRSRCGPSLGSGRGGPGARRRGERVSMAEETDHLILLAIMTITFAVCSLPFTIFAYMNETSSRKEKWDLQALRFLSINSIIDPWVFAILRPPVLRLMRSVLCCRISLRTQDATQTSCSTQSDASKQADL
Experimental: as §1, §2, §3, §4

[5] = molecular target: T5, human prostanoid EP3 receptor (Homo sapiens, UniProt P43115); test: FLIPR Ca2+ signaling PG antagonist assay, EP3 stable cell line; conditions: antagonist Kb vs standard agonist PGE2; HEK-293 EBNA cells with chimeric Gqi
T5 construct: expressed in transfected cells
T5 sequence (P43115 1-390): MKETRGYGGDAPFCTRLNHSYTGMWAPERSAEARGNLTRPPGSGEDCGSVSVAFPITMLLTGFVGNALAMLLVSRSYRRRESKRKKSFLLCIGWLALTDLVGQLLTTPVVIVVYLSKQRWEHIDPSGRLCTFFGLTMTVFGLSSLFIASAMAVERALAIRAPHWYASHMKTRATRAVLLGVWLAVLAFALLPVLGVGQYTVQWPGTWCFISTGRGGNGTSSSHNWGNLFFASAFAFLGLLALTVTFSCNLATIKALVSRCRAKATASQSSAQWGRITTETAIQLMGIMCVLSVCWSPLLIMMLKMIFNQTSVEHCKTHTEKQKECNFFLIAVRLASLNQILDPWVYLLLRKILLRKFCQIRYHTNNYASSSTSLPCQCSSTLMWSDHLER
Experimental: as §1, §2, §3, §4

[6] = molecular target: T6, human prostanoid EP4 receptor (Homo sapiens, UniProt P35408); test: FLIPR Ca2+ signaling PG antagonist assay, EP4 stable cell line; conditions: antagonist Kb vs standard agonist PGE2; HEK-293 EBNA cells with chimeric Gqs
T6 construct: expressed in transfected cells
T6 sequence (P35408 whole entry): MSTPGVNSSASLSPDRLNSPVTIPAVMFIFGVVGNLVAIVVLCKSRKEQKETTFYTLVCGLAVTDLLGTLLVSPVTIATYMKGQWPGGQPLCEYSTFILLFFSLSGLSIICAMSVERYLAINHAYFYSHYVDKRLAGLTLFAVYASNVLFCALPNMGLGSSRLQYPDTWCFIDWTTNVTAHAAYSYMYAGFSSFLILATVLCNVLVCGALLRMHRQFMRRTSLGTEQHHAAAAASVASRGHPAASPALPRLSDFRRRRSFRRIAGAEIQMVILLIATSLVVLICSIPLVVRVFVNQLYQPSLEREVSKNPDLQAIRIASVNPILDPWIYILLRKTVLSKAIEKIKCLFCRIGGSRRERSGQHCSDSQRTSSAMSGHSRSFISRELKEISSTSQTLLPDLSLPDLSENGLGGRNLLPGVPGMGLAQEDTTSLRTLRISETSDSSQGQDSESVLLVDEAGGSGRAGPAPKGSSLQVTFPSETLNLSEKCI
Experimental: as §1, §2, §3, §4

[7] = molecular target: T7, human prostanoid IP receptor (Homo sapiens, UniProt P43119); test: FLIPR Ca2+ signaling PG antagonist assay, IP stable cell line; conditions: antagonist Kb vs standard agonist Cicaprost; HEK-293 EBNA cells
T7 construct: expressed in transfected cells
T7 sequence (P43119 whole entry): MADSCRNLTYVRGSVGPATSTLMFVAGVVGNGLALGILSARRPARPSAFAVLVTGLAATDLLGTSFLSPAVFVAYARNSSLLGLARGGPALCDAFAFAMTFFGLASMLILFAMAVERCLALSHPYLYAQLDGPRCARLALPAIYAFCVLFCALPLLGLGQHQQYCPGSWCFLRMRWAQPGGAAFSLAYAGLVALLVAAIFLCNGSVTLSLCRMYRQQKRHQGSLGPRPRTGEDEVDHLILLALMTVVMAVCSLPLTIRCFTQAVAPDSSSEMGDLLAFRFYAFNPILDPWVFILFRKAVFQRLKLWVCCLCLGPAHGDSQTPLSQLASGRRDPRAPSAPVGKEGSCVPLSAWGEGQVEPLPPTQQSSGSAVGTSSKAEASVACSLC
Experimental: as §1, §2, §3, §4

[8] = molecular target: T8, human prostanoid TP receptor (Homo sapiens, UniProt P21731); test: FLIPR Ca2+ signaling PG antagonist assay, TP stable cell line; conditions: antagonist Kb vs standard agonist U-46619; HEK-293 EBNA cells
T8 construct: expressed in transfected cells
T8 sequence (P21731 1-343): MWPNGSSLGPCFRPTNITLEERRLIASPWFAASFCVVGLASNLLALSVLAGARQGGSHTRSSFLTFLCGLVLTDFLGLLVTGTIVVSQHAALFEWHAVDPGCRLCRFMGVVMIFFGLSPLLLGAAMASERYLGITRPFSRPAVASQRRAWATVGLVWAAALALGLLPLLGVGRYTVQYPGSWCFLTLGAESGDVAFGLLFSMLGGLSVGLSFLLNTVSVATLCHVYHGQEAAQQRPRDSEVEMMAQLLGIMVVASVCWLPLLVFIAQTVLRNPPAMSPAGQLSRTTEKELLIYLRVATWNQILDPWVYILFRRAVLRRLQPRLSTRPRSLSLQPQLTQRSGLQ
Experimental: as §1, §2, §3, §4

Row | SMILES | Kb [1] [µM] | Kb [2] [µM] | Kb [3] [µM] | Kb [4] [µM] | Kb [5] [µM] | Kb [6] [µM] | Kb [7] [µM] | Kb [8] [µM] | TP (Kb) [8] | DP1 (Kb) [2]
1 | CCC(CC)COc1ccc(Br)cc1Cn1nc(OCC(=O)O)cc1C [Example 1, {1-[5-bromo-2-(2-ethyl-butoxy)-benzyl]-5-methyl-1H-pyrazol-3-yl}-oxaacetic acid] | 0.25 | 0.64 | 0.04 | ≥ 10 | ≥ 10 | 0.13 | 0.22 | 0.002 |  | 
2 | CCC(CC)COc1ccc(Cl)cc1Cn1nc(OCC(=O)O)cc1C [Example 2, {1-[5-chloro-2-(2-ethyl-butoxy)-benzyl]-5-methyl-1H-pyrazol-3-yloxy}-acetic acid] | 0.98 | 0.5 | 0.075 | ≥ 10 | ≥ 10 | 0.35 | 0.6 |  | PAg | 
3 | Cc1cc(OCC(=O)O)nn1Cc1cc(Cl)ccc1OCc1ccc(Cl)cc1 [Example 3, {1-[5-chloro-2-(4-chloro-benzyloxy)-benzyl]-5-methyl-1H-pyrazol-3-yloxy}-acetic acid] | 0.22 | 1 | 0.009 | 0.34 | 3.7 | ≥ 10 | 0.5 | 0.001 |  | 
4 | Cc1cc(OCC(=O)O)nn1Cc1cc(Cl)ccc1OCC(C)C [Example 4, [1-(5-chloro-2-isobutoxy-benzyl)-5-methyl-1H-pyrazol-3-yloxy]-acetic acid] | 1.7 |  | 0.11 | ≥ 10 | ≥ 10 | ≥ 10 | ≥ 10 | 0.015 |  | PAg
